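Assay format: 96-well plates, 48-hour exposure. GI50 = concentration required for 50% inhibition of growth.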 Calls of active or inactive are those of the source. Rule as the data show it: active = GI50 up to about 1.1 µM and inactive = higher.
Tests used:
Test in all cases: NCI tumour cell line growth inhibition, 48 h
[1] = test system: KM12
[2] = test system: SF-268
[3] = test system: SK-MEL-5
[4] = test system: SF-295
[5] = test system: LOX IMVI
[6] = test system: BT-549
[7] = test system: RXF 393
[8] = test system: OVCAR-8
[9] = test system: HCC 2998
[10] = test system: 786-0
[11] = test system: HCT-116
[12] = test system: HCT-15
[13] = test system: HT-29
[14] = test system: MDA-MB-435
[15] = test system: SK-OV-3
[16] = test system: DU-145
[17] = test system: MOLT-4
[18] = test system: NCI/ADR-RES
[19] = test system: SK-MEL-2

| SMILES | GI50 [1] | GI50 [2] | GI50 [3] | GI50 [4] | GI50 [5] | GI50 [6] | GI50 [7] | GI50 [8] | GI50 [9] | GI50 [10] | GI50 [11] | GI50 [12] [µM] | GI50 [13] | GI50 [14] | GI50 [15] | GI50 [16] | GI50 [17] | GI50 [18] | GI50 [19] |
| --- | --- | --- | --- | --- | --- | --- | --- | --- | --- | --- | --- | --- | --- | --- | --- | --- | --- | --- | --- |
| CC1(C)OC(=C(C#N)C#N)C(C#N)=C1/C=C/c1ccncc1 | 3.8 µM (inactive) | 2.21 µM (inactive) | 4.37 µM (inactive) | 2.24 µM (inactive) | 1.86 µM (inactive) | 1.65 µM (inactive) | 2.29 µM (inactive) | 1.75 µM (inactive) | 4.9 µM (inactive) | 2.03 µM (inactive) | 1.91 µM (inactive) | 2.03 | 2.11 µM (inactive) | 3.45 µM (inactive) | 4.66 µM (inactive) | 2.53 µM (inactive) | 2.03 µM (inactive) | 2.03 µM (inactive) | 2.66 µM (inactive) |
| CCCCCCCCCCCC[C@@H](O)[C@H]1CCC([C@H](O)CCCCC(=O)CCCCCCCC2=C[C@H](C)OC2=O)O1 (stereo partly drawn) | 13.1 µM (inactive) | 18.1 µM (inactive) | 0.0315 µM (active) | 20.1 µM (inactive) | 2.34 µM (inactive) | 9.06 µM (inactive) | 11.6 µM (inactive) | 28.5 µM (inactive) | > 50 µM (inactive) | > 31.6 µM (inactive) | 3.01 µM (inactive) | 17.9 | 14.6 µM (inactive) | > 21.3 µM (inactive) | > 50 µM (inactive) | > 50 µM (inactive) | 2.62 µM (inactive) | 12.6 µM (inactive) | > 26.1 µM (inactive) |
| NC(N)=NCCC[C@H](N)C(=O)NCC(=O)N[C@@H](CC(=O)O)c1ncc(NC(=O)C(F)(F)F)o1 | > 25 µM (inactive) | > 25 µM (inactive) | > 25 µM (inactive) | > 25 µM (inactive) | > 25 µM (inactive) | > 25 µM (inactive) | > 25 µM (inactive) | > 25 µM (inactive) | 17.8 µM (inactive) | > 25 µM (inactive) | > 25 µM (inactive) | > 25 | > 25 µM (inactive) | > 25 µM (inactive) | > 25 µM (inactive) | > 25 µM (inactive) | > 25 µM (inactive) | > 25 µM (inactive) | > 25 µM (inactive) |
| Cc1cccc2cc3ccc4ccccc4c3cc12 | 37.2 µM (inactive) | > 100 µM (inactive) | 21.9 µM (inactive) | 40.8 µM (inactive) | 39.4 µM (inactive) | > 100 µM (inactive) | 75.2 µM (inactive) | > 100 µM (inactive) | 19.9 µM (inactive) | 41.7 µM (inactive) | 30 µM (inactive) | 47 | 30.7 µM (inactive) | 47.6 µM (inactive) | > 100 µM (inactive) | 66.5 µM (inactive) | 25.7 µM (inactive) | > 100 µM (inactive) | 26.5 µM (inactive) |
| CC(=O)c1ccc(Nc2c3c(nc4ccccc24)CCCC3)cc1 | 7.29 µM (inactive) | 40.2 µM (inactive) | 14.9 µM (inactive) | 11.2 µM (inactive) | 10 µM (inactive) | 9.79 µM (inactive) | 20.5 µM (inactive) | 17.7 µM (inactive) | 42.1 µM (inactive) | 25.7 µM (inactive) | 13.2 µM (inactive) | 13.7 | 10.2 µM (inactive) | 1.96 µM (inactive) | 26.7 µM (inactive) | 20 µM (inactive) | 9.59 µM (inactive) | 10.4 µM (inactive) | 24 µM (inactive) |
| COc1cc2c(cc1OC)C(=O)/C(=C/c1ccc(O)cc1)CC2 | > 10 µM (inactive) | > 10 µM (inactive) | > 10 µM (inactive) | > 10 µM (inactive) | > 10 µM (inactive) | > 10 µM (inactive) | > 10 µM (inactive) | > 10 µM (inactive) | > 10 µM (inactive) | > 10 µM (inactive) | > 10 µM (inactive) | > 10 | > 10 µM (inactive) | > 10 µM (inactive) | > 10 µM (inactive) | > 10 µM (inactive) | > 10 µM (inactive) | > 10 µM (inactive) | > 10 µM (inactive) |
| CCC(=O)N1NC(=O)C(CC)(CC)C1=O | > 100 µM (inactive) | > 100 µM (inactive) | > 100 µM (inactive) | > 100 µM (inactive) | > 100 µM (inactive) | > 100 µM (inactive) | > 100 µM (inactive) | > 100 µM (inactive) | > 100 µM (inactive) | > 100 µM (inactive) | > 100 µM (inactive) | > 100 | > 100 µM (inactive) | > 100 µM (inactive) | > 100 µM (inactive) | > 100 µM (inactive) | > 100 µM (inactive) | > 100 µM (inactive) | > 100 µM (inactive) |

From ChEMBL document CHEMBL1201862, “PubChem BioAssay data set” (2004)
